In ChEMBL document CHEMBL3046635, “Synthesis and Herbicidal Activity of New Pyrazole-4-carboxamide Derivatives” (J Pestic Sci, 2004):
Activity calls are given as the source filed them.

What was measured:
[1] = tested on: Oryza sativa; experiment: Phytotoxicity against Oryza sativa cv. Koshihikari (rice) at 2000 g a.i/ha measured after 14 days; format: organism-based; settings: in vivo, 336 h
[2] = tested on: Echinochloa oryzicola; experiment: Pre-emergence herbicidal activity against Echinochloa oryzicola at 2000 g a.i/ha measured after 14 days; format: functional, organism-based
[3] = tested on: Eleocharis acicularis; experiment: Post-emergence herbicidal activity against Eleocharis acicularis assessed as bleaching of stem/leaf parts; format: functional, organism-based; also: test concentration or dose not given here
[4] = tested on: Eleocharis acicularis; experiment: Pre-emergence herbicidal activity against Eleocharis acicularis assessed as bleaching of stem/leaf parts; format: functional, organism-based
[5] = tested on: Ammannia multiflora; experiment: Pre-emergence herbicidal activity against Ammannia multiflora assessed as bleaching of stem/leaf parts; format: functional, organism-based
[6] = tested on: Rotala indica; experiment: Pre-emergence herbicidal activity against Rotala indica assessed as bleaching of stem/leaf parts; format: functional, organism-based
[7] = tested on: Elatine triandra; experiment: Pre-emergence herbicidal activity against Elatine triandra assessed as bleaching of stem/leaf parts; format: functional, organism-based
[8] = tested on: Lindernia procumbens; experiment: Pre-emergence herbicidal activity against Lindernia procumbens assessed as bleaching of stem/leaf parts; format: functional, organism-based
[9] = tested on: Schoenoplectiella juncoides; experiment: Pre-emergence herbicidal activity against Schoenoplectiella juncoides assessed as bleaching of stem/leaf parts; format: functional, organism-based
[10] = tested on: Pontederia vaginalis; experiment: Pre-emergence herbicidal activity against Monochoria vaginalis assessed as bleaching of stem/leaf parts; format: functional, organism-based
[11] = tested on: Cyperus difformis; experiment: Pre-emergence herbicidal activity against Cyperus difformis assessed as bleaching of stem/leaf parts; format: functional, organism-based
[12] = tested on: Echinochloa oryzicola; experiment: Pre-emergence herbicidal activity against Echinochloa oryzicola assessed as bleaching of stem/leaf parts; format: functional, organism-based
[13] = tested on: Ammannia multiflora; experiment: Post-emergence herbicidal activity against Ammannia multiflora assessed as bleaching of stem/leaf parts; format: functional, organism-based; also: test concentration or dose not given here
[14] = tested on: Elatine triandra; experiment: Post-emergence herbicidal activity against Elatine triandra assessed as bleaching of stem/leaf parts; format: functional, organism-based; also: test concentration or dose not given here
[15] = tested on: Rotala indica; experiment: Post-emergence herbicidal activity against Rotala indica assessed as bleaching of stem/leaf parts; format: functional, organism-based; also: test concentration or dose not given here
[16] = tested on: Schoenoplectiella juncoides; experiment: Post-emergence herbicidal activity against Schoenoplectiella juncoides assessed as bleaching of stem/leaf parts; format: functional, organism-based; also: test concentration or dose not given here
[17] = tested on: Lindernia procumbens; experiment: Post-emergence herbicidal activity against Lindernia procumbens assessed as bleaching of stem/leaf parts; format: functional, organism-based; also: test concentration or dose not given here
[18] = tested on: Pontederia vaginalis; experiment: Post-emergence herbicidal activity against Monochoria vaginalis assessed as bleaching of stem/leaf parts; format: functional, organism-based; also: test concentration or dose not given here
[19] = tested on: Cyperus difformis; experiment: Post-emergence herbicidal activity against Cyperus difformis assessed as bleaching of stem/leaf parts; format: functional, organism-based; also: test concentration or dose not given here
[20] = tested on: Echinochloa oryzicola; experiment: Post-emergence herbicidal activity against Echinochloa oryzicola assessed as bleaching of stem/leaf parts; format: functional, organism-based; also: test concentration or dose not given here
[21] = tested on: Eleocharis acicularis; experiment: Pre-emergence herbicidal activity against Eleocharis acicularis at 2000 g a.i/ha measured after 14 days; format: functional, organism-based
[22] = tested on: Schoenoplectiella juncoides; experiment: Pre-emergence herbicidal activity against Schoenoplectiella juncoides at 2000 g a.i/ha measured after 14 days; format: functional, organism-based
[23] = tested on: Pontederia vaginalis; experiment: Pre-emergence herbicidal activity against Monochoria vaginalis at 2000 g a.i/ha measured after 14 days; format: functional, organism-based
[24] = tested on: Ammannia multiflora; experiment: Pre-emergence herbicidal activity against Ammannia multiflora at 2000 g a.i/ha measured after 14 days; format: functional, organism-based
[25] = tested on: Rotala indica; experiment: Pre-emergence herbicidal activity against Rotala indica at 2000 g a.i/ha measured after 14 days; format: functional, organism-based
[26] = tested on: Elatine triandra; experiment: Pre-emergence herbicidal activity against Elatine triandra at 2000 g a.i/ha measured after 14 days; format: functional, organism-based
[27] = tested on: Lindernia procumbens; experiment: Pre-emergence herbicidal activity against Lindernia procumbens at 2000 g a.i/ha measured after 14 days; format: functional, organism-based
[28] = tested on: Cyperus difformis; experiment: Pre-emergence herbicidal activity against Cyperus difformis at 2000 g a.i/ha measured after 14 days; format: functional, organism-based
[29] = tested on: Eleocharis acicularis; experiment: Pre-emergence herbicidal activity against Eleocharis acicularis at 100 g a.i/ha measured after 14 days; format: functional, organism-based
[30] = tested on: Oryza sativa; experiment: Phytotoxicity against Oryza sativa cv. Koshihikari (rice) at 100 g a.i/ha measured after 14 days; format: organism-based; settings: in vivo, 336 h
[31] = tested on: Schoenoplectiella juncoides; experiment: Pre-emergence herbicidal activity against Schoenoplectiella juncoides at 100 g a.i/ha measured after 14 days; format: functional, organism-based
[32] = tested on: Pontederia vaginalis; experiment: Pre-emergence herbicidal activity against Monochoria vaginalis at 100 g a.i/ha measured after 14 days; format: functional, organism-based
[33] = tested on: Ammannia multiflora; experiment: Pre-emergence herbicidal activity against Ammannia multiflora at 100 g a.i/ha measured after 14 days; format: functional, organism-based
[34] = tested on: Rotala indica; experiment: Pre-emergence herbicidal activity against Rotala indica at 100 g a.i/ha measured after 14 days; format: functional, organism-based
[35] = tested on: Elatine triandra; experiment: Pre-emergence herbicidal activity against Elatine triandra at 100 g a.i/ha measured after 14 days; format: functional, organism-based
[36] = tested on: Lindernia procumbens; experiment: Pre-emergence herbicidal activity against Lindernia procumbens at 100 g a.i/ha measured after 14 days; format: functional, organism-based
[37] = tested on: Cyperus difformis; experiment: Pre-emergence herbicidal activity against Cyperus difformis at 100 g a.i/ha measured after 14 days; format: functional, organism-based
[38] = tested on: Echinochloa oryzicola; experiment: Pre-emergence herbicidal activity against Echinochloa oryzicola at 100 g a.i/ha measured after 14 days; format: functional, organism-based
[39] = tested on: Oryza sativa; experiment: Phytotoxicity against Oryza sativa cv. Koshihikari (rice) at 500 g a.i/ha measured after 14 days; format: organism-based; settings: in vivo, 336 h
[40] = tested on: Eleocharis acicularis; experiment: Pre-emergence herbicidal activity against Eleocharis acicularis at 500 g a.i/ha measured after 14 days; format: functional, organism-based
[41] = tested on: Pontederia vaginalis; experiment: Pre-emergence herbicidal activity against Monochoria vaginalis at 500 g a.i/ha measured after 14 days; format: functional, organism-based
[42] = tested on: Schoenoplectiella juncoides; experiment: Pre-emergence herbicidal activity against Schoenoplectiella juncoides at 500 g a.i/ha measured after 14 days; format: functional, organism-based
[43] = tested on: Ammannia multiflora; experiment: Pre-emergence herbicidal activity against Ammannia multiflora at 500 g a.i/ha measured after 14 days; format: functional, organism-based
[44] = tested on: Elatine triandra; experiment: Pre-emergence herbicidal activity against Elatine triandra at 500 g a.i/ha measured after 14 days; format: functional, organism-based
[45] = tested on: Rotala indica; experiment: Pre-emergence herbicidal activity against Rotala indica at 500 g a.i/ha measured after 14 days; format: functional, organism-based
[46] = tested on: Lindernia procumbens; experiment: Pre-emergence herbicidal activity against Lindernia procumbens at 500 g a.i/ha measured after 14 days; format: functional, organism-based
[47] = tested on: Echinochloa oryzicola; experiment: Pre-emergence herbicidal activity against Echinochloa oryzicola at 500 g a.i/ha measured after 14 days; format: functional, organism-based
[48] = tested on: Cyperus difformis; experiment: Pre-emergence herbicidal activity against Cyperus difformis at 500 g a.i/ha measured after 14 days; format: functional, organism-based

SMILES	Activity [3]	Activity [4]	Activity [5]	Activity [6]	Activity [7]	Activity [8]	Activity [9]	Activity [10]	Activity [11]	Activity [12]	Activity [13]	Activity [14]	Activity [15]	Activity [16]	Activity [17]	Activity [18]	Activity [19]	Activity [20]	Activity [29]	Activity [30]	other results
CCCN(CC)C(=O)c1cn(C)nc1OCc1ccccc1C(F)(F)F	Active	Active	Active	Active	Active	Active	Active	Active	Active	Active	Active	Active	Active	Active	Active	Active	Active	Active			Activity [1]: Non-toxic; Activity [2]: inactive; Activity [21]: inactive; Activity [22]: inactive; Activity [23]: inactive; Activity [24]: inactive; Activity [25]: inactive; Activity [26]: inactive; Activity [27]: inactive; Activity [28]: inactive
CCCN(CC)C(=O)c1cn(C)nc1OCc1cccc(C)c1	Active	Active	Active	Active	Active	Active	Active	Active	Active	Active	Active	Active	Active	Active	Active	Active	Active	Active			Activity [1]: Non-toxic; Activity [2]: inactive; Activity [22]: Active; Activity [23]: Active; Activity [24]: Active; Activity [25]: Active; Activity [26]: Active; Activity [27]: Active; Activity [28]: Active
Cn1cc(C(=O)NOc2ccc(Cl)cc2Cl)c(OCc2cccc(C(F)(F)F)c2)n1	Active	Active	Active	Active	Active	Active	Active	Active	Active	Active	Active	Active	Active	Active	Active	Active	Active	Active	Active	Non-toxic	Activity [31]: inactive; Activity [32]: Active; Activity [33]: Active; Activity [34]: Active; Activity [35]: Active; Activity [36]: Active; Activity [37]: Active; Activity [38]: Active; Activity [39]: Non-toxic; Activity [40]: Active; Activity [41]: Active; Activity [42]: Active; Activity [43]: Active; Activity [44]: Active; Activity [45]: Active; Activity [46]: Active; Activity [47]: Active; Activity [48]: Active
Cn1cc(C(=O)Nc2ccc(Cl)cc2Cl)c(OCc2cccc(C(F)(F)F)c2)n1	Active	Active	Active	Active	Active	Active	Active	Active	Active	Active	Active	Active	Active	Active	Active	Active	Active	Active	Active	Non-toxic	Activity [31]: inactive; Activity [32]: Active; Activity [33]: Active; Activity [34]: Active; Activity [35]: Active; Activity [36]: Active; Activity [37]: Active; Activity [38]: inactive; Activity [39]: Toxic; Activity [40]: Active; Activity [41]: Active; Activity [42]: Active; Activity [43]: Active; Activity [44]: Active; Activity [45]: Active; Activity [46]: Active; Activity [47]: Active; Activity [48]: Active
Cn1cc(C(=O)Nc2ccccc2)c(OCc2cccc(C(F)(F)F)c2)n1	Active	Active	Active	Active	Active	Active	Active	Active	Active	Active	Active	Active	Active	Active	Active	Active	Active	Active	Active	Non-toxic	Activity [31]: inactive; Activity [32]: Active; Activity [33]: Active; Activity [34]: Active; Activity [35]: Active; Activity [36]: Active; Activity [37]: inactive; Activity [38]: Active; Activity [39]: Non-toxic; Activity [40]: Active; Activity [41]: Active; Activity [42]: Active; Activity [43]: Active; Activity [44]: Active; Activity [45]: Active; Activity [46]: Active; Activity [47]: Active; Activity [48]: Active
CCONC(=O)c1cn(CC)nc1OCc1cccc(C(F)(F)F)c1	Active	Active	Active	Active	Active	Active	Active	Active	Active	Active	Active	Active	Active	Active	Active	Active	Active	Active	inactive	Non-toxic	Activity [31]: inactive; Activity [32]: inactive; Activity [33]: Active; Activity [34]: Active; Activity [35]: Active; Activity [36]: Active; Activity [37]: Active; Activity [38]: Active; Activity [39]: Non-toxic; Activity [40]: Active; Activity [41]: Active; Activity [42]: Active; Activity [43]: Active; Activity [44]: Active; Activity [45]: Active; Activity [46]: Active; Activity [47]: Active; Activity [48]: Active
